# From patent US7250269B2, “Composition for assaying glycoprotein” (Asahi Kasei Pharma Corporation, priority 2001, dated 2007)
# Experiments:
# Type in all cases: biochemical
# [1] = molecular target: Fusarium oxysporum IFO-9972 fructosyl amino acid oxidase (FOD), mutant with 372nd lysine of SEQ ID NO: 1 replaced with alanine (Fusarium oxysporum, UniProt X0D315, K373A); assay: Substrate specificity of mutant FOD, Table 6 (372nd lysine replaced with alanine); details: for Kcat: substrate glycated amino acid
# Method: (§1) <<Method for Measuring Activity of Enzyme Reacting with Glycated Amino Acid>>
# (§2) <Composition of Reaction Solution>
# (§3) The glycated amino acid substrate specificity of FOD-mutated recombinant contained in the cell extract prepared in Example 16 was measured using the above-mentioned FOD enzyme activity measuring method. As a result, two mutants of which the reactivity with glycated valine is less than 1/1,000 the reactivity with glycated lysine were identified among candidate strains. These were regarded as the target mutants.
# (§4) To observe the effect of replacement with other amino acids at the mutated amino acid site identified in Example 19, the site-directed mutagenesis according to the method of Kunkel et al. was carried out. Synthesis of an oligonucleotide having the base sequence of 1-27 in the sequence table Sequence ID No. 7 was consigned to an outside source (BEX Co., Ltd.). The oligonucleotide was subjected to the site-directed mutagenesis using the Mutan-K kit (manufactured by Takara Shuzo Co., Ltd.) according to the manual attached to the kit. The mutant gene obtained was incorporated again into the expression plasmid pTV119N, introduced into Escherichia coli host, and cultured at 30° C. for 16 hours in a 3.7% BHI liquid medium containing 50 μg/ml of ampicillin and 1 mM of IPTG to produce mutant FOD protein.
# [2] = molecular target: Fusarium oxysporum IFO-9972 fructosyl amino acid oxidase (FOD), mutant with 372nd lysine of SEQ ID NO: 1 replaced with cysteine (Fusarium oxysporum, UniProt X0D315, K373C); assay: Substrate specificity of mutant FOD, Table 6 (372nd lysine replaced with cysteine); details: for Kcat: substrate glycated amino acid
# Method: as §1, §2, §3, §4
# [3] = molecular target: Fusarium oxysporum IFO-9972 fructosyl amino acid oxidase (FOD), mutant with 372nd lysine of SEQ ID NO: 1 replaced with arginine (Fusarium oxysporum, UniProt X0D315, K373R); assay: Substrate specificity of mutant FOD, Table 6 (372nd lysine replaced with arginine); details: for Kcat: substrate glycated amino acid
# Method: as §1, §2, §3
# The base sequences of the mutant FOD genes obtained in Example 18 were determined according to the dideoxy method.
# as §4
# [4] = molecular target: Fusarium oxysporum IFO-9972 fructosyl amino acid oxidase (FOD), mutant FOD-M, 372nd lysine of SEQ ID NO: 1 replaced with methionine, SEQ ID NO: 3 (Fusarium oxysporum, UniProt X0D315, K373M); assay: Substrate specificity of mutant FOD-M, Table 6 (372nd lysine replaced with methionine); details: for Kcat: substrate glycated amino acid
# Method: as §1, §2, §3, §4
# (§5) The mutant obtained by replacing the lysine with tryptophan was named FOD-W, the expression plasmid producing the FOD-W was named pcmFOD3, the mutant obtained by replacing the lysine with methionine was named FOD-M, the expression plasmid producing the FOD-M was named pcmFOD4, the mutant obtained by replacing the lysine with valine was named FOD-V, and the expression plasmid producing the FOD-V was named pcmFOD5.
# [5] = molecular target: Fusarium oxysporum IFO-9972 fructosyl amino acid oxidase (FOD), mutant with 372nd lysine of SEQ ID NO: 1 replaced with threonine (Fusarium oxysporum, UniProt X0D315, K373T); assay: Substrate specificity of mutant FOD, Table 6 (372nd lysine replaced with threonine); details: for Kcat: substrate glycated amino acid
# Method: as §1, §2, §3, §4
# [6] = molecular target: Fusarium oxysporum IFO-9972 fructosyl amino acid oxidase (FOD), wild type (372nd lysine), SEQ ID NO: 1 (Fusarium oxysporum, UniProt X0D315); assay: Substrate specificity of FOD, Table 6 (372nd amino acid Lysine, wild type); details: for Kcat: substrate glycated amino acid
# Method: as §1, §2, §3, §4
# [7] = molecular target: Fusarium oxysporum IFO-9972 fructosyl amino acid oxidase (FOD), mutant FOD-W, 372nd lysine of SEQ ID NO: 1 replaced with tryptophan, SEQ ID NO: 2 (Fusarium oxysporum, UniProt X0D315, K373W); assay: Substrate specificity and Km of mutant FOD-W (372nd lysine replaced with tryptophan); details: substrate glycated amino acid, "below limit" = below the detection limit
# Method: as §1, §2, §3
# as §4, with “protein. […]” for “protein.”
# [8] = molecular target: Fusarium oxysporum IFO-9972 fructosyl amino acid oxidase (FOD), mutant with 372nd lysine of SEQ ID NO: 1 replaced with serine (Fusarium oxysporum, UniProt X0D315, K373S); assay: Substrate specificity of mutant FOD, Table 6 (372nd lysine replaced with serine); details: for Kcat: substrate glycated amino acid
# Method: as §1, §2, §3, §4
# [9] = molecular target: Fusarium oxysporum IFO-9972 fructosyl amino acid oxidase (FOD), mutant FOD-V, 372nd lysine of SEQ ID NO: 1 replaced with valine, SEQ ID NO: 4 (Fusarium oxysporum, UniProt X0D315, K373V); assay: Substrate specificity of mutant FOD-V, Table 6 (372nd lysine replaced with valine); details: for Kcat: substrate glycated amino acid
# Method: as §1, §2, §3, §4, §5
# [10] = molecular target: T1, HSA substrate solution; Albumin Human (Homo sapiens, UniProt P02768); assay: Activity of various proteases on HSA substrate solution (released glycated amino acids/peptides assayed with R-FOD); details: pH 8.0; 37° C. for 30 minutes
# T1 construct: purchased Sigma-Aldrich Co
# Method: (§6) • 1. […] GA % was assayed using a glycated albumin analyzer (GAA-2000, manufactured by ARKRAY, Inc.). • 2. G-II and III substrate solutions, FRA value=48 μmol/L [Globulins Human Cohn Fraction II and III; 16.9 mg/ml (manufactured by Sigma-Aldrich Co.)] • 3. G-IV substrate solution, FRA value=26 μmol/L [Globulins Human Cohn Fraction IV; 6 mg/ml (manufactured by Sigma-Aldrich Co.)] • 4. G-I substrate solution, FRA value=77 μmol/L [Glovenin I: immunoglobulin preparation (manufactured by Takeda Chemical Industries, Ltd.)] • 5. Hb substrate solution: Hemoglobin Human; 55 mg/ml, glycated hemoglobin rate: HbA1c=4.5% [manufactured by Sigma-Aldrich Co., the HbA1c value was determined using a glycated hemoglobin analyzer (Hi-Auto A1C HA-8150, manufactured by ARKRAY, Inc.)]. […]
# (§7) 300 μl of the above reaction solution for assaying glycated amino acids was added to a cell and incubated for three minutes at 37° C. […] Absorbances (A0 blank and A1 blank) were measured. The reaction of protease with glycated proteins is indicated by the following absorbance change. ΔA=(A1−A0)−(A1 blank−A0 blank)
# [11] = molecular target: T2, Hb substrate solution: Hemoglobin Human (Homo sapiens, UniProt P68871+P69905); assay: Activity of various proteases on Hb substrate solution (R-FOD assay); details: pH 8.0; 37° C. for 60 minutes
# T2 construct: purchased Sigma-Aldrich Co
# Method: as §6, §7
# [12] = tested on: G-I substrate solution (Glovenin I: immunoglobulin preparation); assay: Activity of various proteases on G-I substrate solution (R-FOD assay); details: pH 8.0, 37° C. for 30 minutes
# Method: as §6, §7
# T1 sequence (P02768 25-609): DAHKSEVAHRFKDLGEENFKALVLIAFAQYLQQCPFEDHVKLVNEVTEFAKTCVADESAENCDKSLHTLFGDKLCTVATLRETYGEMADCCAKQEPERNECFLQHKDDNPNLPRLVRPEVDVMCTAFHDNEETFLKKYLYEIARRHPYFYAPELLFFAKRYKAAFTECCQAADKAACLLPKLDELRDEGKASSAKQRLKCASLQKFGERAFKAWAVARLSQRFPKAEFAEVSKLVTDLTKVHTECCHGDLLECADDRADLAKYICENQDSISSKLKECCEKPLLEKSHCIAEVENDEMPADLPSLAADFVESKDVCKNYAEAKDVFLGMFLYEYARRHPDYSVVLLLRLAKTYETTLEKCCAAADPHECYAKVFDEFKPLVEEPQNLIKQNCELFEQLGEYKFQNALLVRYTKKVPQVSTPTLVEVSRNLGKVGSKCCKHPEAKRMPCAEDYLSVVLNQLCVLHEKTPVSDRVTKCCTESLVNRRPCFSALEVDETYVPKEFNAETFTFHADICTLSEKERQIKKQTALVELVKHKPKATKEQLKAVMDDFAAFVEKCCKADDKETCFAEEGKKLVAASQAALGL
# T2 sequence (P69905 2-142 limits assumed): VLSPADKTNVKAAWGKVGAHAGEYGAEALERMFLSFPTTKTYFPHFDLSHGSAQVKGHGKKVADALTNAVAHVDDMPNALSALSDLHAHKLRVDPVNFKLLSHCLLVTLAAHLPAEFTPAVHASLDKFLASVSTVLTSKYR
# T2 sequence (P68871 2-147 limits assumed): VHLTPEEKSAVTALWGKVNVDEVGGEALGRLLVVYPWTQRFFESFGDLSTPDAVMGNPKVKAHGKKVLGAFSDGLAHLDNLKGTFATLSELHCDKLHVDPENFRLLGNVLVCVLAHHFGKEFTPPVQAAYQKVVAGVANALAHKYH
ΔA HSA [10] [mAbs],ΔA Hb [11] [mAbs],Molecule,"Kcat reactivity ratio (a)/(b), glycated lysine/glycated valine [1]",Kcat [1],"Kcat reactivity ratio (a)/(b), glycated lysine/glycated valine [2]",Kcat [2],"Kcat reactivity ratio (a)/(b), glycated lysine/glycated valine [3]",Kcat [3],"Kcat reactivity ratio (a)/(b), glycated lysine/glycated valine [4]",Kcat [4],"Kcat reactivity ratio (a)/(b), glycated lysine/glycated valine [5]",Kcat [5],"Kcat reactivity ratio (a)/(b), glycated lysine/glycated valine [6]",Kcat [6],Kcat [7],"Kcat reactivity ratio (a)/(b), glycated lysine/glycated valine [8]",Kcat [8],"Kcat reactivity ratio (a)/(b), glycated lysine/glycated valine [9]",Kcat [9],ΔA Gl [12] [mAbs]
–,–,"O=C(N[C@@H](CCCCNCC1(O)OC[C@@H](O)[C@@H](O)[C@@H]1O)C(=O)O)OCc1ccccc1 (stereo partly drawn) [glycated lysine, α-carbobenzoxy-ε-D-1-deoxy-fructosyl lysine]",1480,1790,1560,569,788,351,745,853,2010,952,27.1,14900,248,747,1250,1420,1470,–
25,7,Chymotrypsin,–,–,–,–,–,–,–,–,–,–,–,–,–,–,–,–,–,103
–,–,"CC(C)[C@H](NCC1(O)OC[C@@H](O)[C@@H](O)[C@@H]1O)C(=O)O (some centres unmarked) [glycated valine, 1-deoxy-fructosyl valine]",–,1.21,–,0.37,–,0.45,–,1.14,–,0.47,–,549,below limit,–,1.68,–,1.04,–
52,17,Pancreatin,–,–,–,–,–,–,–,–,–,–,–,–,–,–,–,–,–,100
